One experiment concerns elastase. Description: fMLP induced elastase release from human neutrophils. Type of experiment: cell-based. The note with it: Neutrophil, compound alone. The procedure:
Blood was procured from a local blood bank. Neutrophils were obtained using the dextran sedimentation method. Cells were plated at 100,000 cells per well in a 96-well plate, treated with fMLP (1 μM) and N-Succinyl-Ala-Ala-Ala-p-nitroanalide (1 μM) (Sigma) and incubated for 2 h. Intensity of digested substrate after incubation was determined by measuring the absorbance at 405 nm on a Fluostar Omega (BMG Labtech, NC, USA).

Another experiment has as its system neutrophil infiltration. Kind of experiment: Lipopolysaccharide induced pulmonary neutrophilia in female Wistar rats. Type of experiment: in vivo. As to the method: After the quarantine period, fasted animals were randomized and divided into groups depending on their body weights. Test compound was prepared as a suspension in a vehicle consisting of 0.5% methylcellulose in which Tween 80 was used as a suspending agent. Compounds or vehicle were administered by oral gavage in a volume of 10 mL/kg. Animals were anaesthetized with ketamine and LPS solution was administered intratracheally 30 minutes after compound administration at a dose of 1 mg/kg. Six hours after LPS instillation, animals were exsanguinated under anaesthesia, and the trachea was cannulated, and lungs were lavaged with 5-ml aliquots of heparinised PBS (1 unit/ml) four times through the tracheal cannula (total volume 20 ml). Bronchioalveolar (BAL) fluid was stored at 2-8° C. until assayed for total cell and differential leukocyte count. BAL fluid was centrifuged (500×g for 10 min) and the resulting cell pellet was resuspended in 0.5 ml of heparinised saline. The total numbers of white blood cells were determined in BAL fluid or blood using a cell counter and were adjusted to 1×10^6 cell/ml. Differential cell count was calculated manually. One hundred microliters of the cell suspension was centrifuged using cytospin 3 to prepare a cell smear. The cell smear was stained with a blood staining solution for differentiation and slides were microscopically observed to identify eosinophils according to their morphological characteristics. The number of each cell type among 300 white blood cells in the cell smear was determined and expressed as a percentage of total cells. The number of eosinophil in BALF was calculated.
The procedure for LPS induced pulmonary neutrophilia in female Wistar rats as described in Example 1 was performed with compound A1 and roflumilast.

The next experiment relates to A549 cells. Description: Cell cycle analysis / CSE induced apoptosis in A549 cells. The note with it: compound alone, CSE 72 h. Type of experiment: cell-based. The procedure: A549 cells were plated in 6-well plates at a density of 100,000 cells per well and stimulated with CSE for 72 h. After incubation, cells were fixed in 70% ethanol and stored at 4° C. till analysis. Cells were stained with Guava Cell Cycle reagent according to the manufacturer's instructions. Cell cycle data were obtained using the Guava Personal Cell Analysis System (Millipore, USA).

pIC50: −log10 of the molar value.

As a reminder, the Emax is the size of the effect at its maximum, as opposed to the concentration needed. What is called pIC50 is −log10 of the IC50, conventionally taken in molar units.

Turning to `O=C(Nc1c(Cl)cncc1Cl)c1ccc(OC(F)F)c(OCC2CC2)c1` [Compound A, roflumilast, reference compound], the Emax in the experiment with elastase (Homo sapiens, read-out: Emax of inhibition of elastase release) worked out at 43%. The pIC50 with elastase (human neutrophils, read-out: IC50 of inhibition of fMLP induced elastase release) is 7.99. Also, the “percent inhibition of neutrophil infiltration” value is reported as −7.89% with neutrophil infiltration (0.3 mg/kg oral, rat BAL fluid 6 h after LPS); 43.46% in the experiment with neutrophil infiltration (1 mg/kg oral, dose-response study, rat); 68.02% in the experiment with neutrophil infiltration (3 mg/kg oral, rat); 92.21% in the experiment on neutrophil infiltration (10 mg/kg oral, rat). Moreover, the ED50 with neutrophil infiltration (Neutrophil, oral, rat LPS pulmonary neutrophilia, read-out: 50% inhibition (ED50) dose, neutrophil infiltration) stood at 1.8 mg/kg. In the experiment with neutrophil infiltration (combination study, alone at 1.8 mg/kg, rat), the “inhibition of neutrophil infiltration” value turned out to be 36.18%. In the experiment with A549 cells, the inhibition of apoptosis entry is given as “dose-dependent inhibition of apoptosis”.

Values taken from patent publication US10413532B2, “Pharmaceutical compositions containing a PDE4 inhibitor and a PI3 delta or dual PI3 delta-gamma kinase inhibitor” (Rhizen Pharmaceuticals SA, priority 2012, dated 2019).
